Assay results reported in patent publication US9453242B2, “Method and culture medium for preparing mammalian ovum or embryo in which zona pellucida has been thinned or eliminated, and method for fertilization using mammalian ovum prepared by same method” (NATIONAL UNIVERISTY CORPORATION KUMAMOTO UNIVERSITY, priority 2010, dated 2016).

Key:
[1] = tested on: zona pellucida of a mouse unfertilized ovum; experiment: Swelling of zona pellucida (area in zona pellucida) of unfertilized ovum; format: cell-based; details: reducing agents other than glutathione; FIG. 10, FIG. 11 (DTT 0.5, ascorbic acid 5, epicatechin 1 mM)
Experimental: Further, the influence of glutathione on swelling of zona pellucida was confirmed. […] Preparation of ovum” were treated with HTF culture media containing glutathione at various concentration at 37° C. for 6 hours, then, the area in zona pellucida was photographed under a microscope and measured by an image analysis software. The conditions of zona pellucida at glutathione concentrations of 0 mM, 1 mM, 2 mM and 10 mM were observed by an invert microscope.
The influence of other reducing agents (DTT, ascorbic acid (VC) and epicatechin (EC)) exerted on thinning and swelling of zona pellucida was confirmed in the same manner as in Example 2. The extent of swelling of the zona pellucida of an unfertilized ovum by the concentration of each reducing agent was photographed under a microscope, and determined according to the following formula. % Relative area in ZP=(area of zona pellucida in each experiment/area of zona pellucida at 0 mM)×100

[2] = tested on: frozen sperms of C57BL/6J mice; experiment: In vitro fertilization after sperm pre-incubation with MBCD and/or glutathione; format: cell-based, mouse
Experimental: A sperm suspension is pre-incubated in 90 μl of a TYH culture medium at 37° C. for 30 minutes, and under a stereomicroscope, sperms showing motility are collected, avoiding nonmotile sperms, and used for fertilization. The pre-incubated sperm suspension (10 μl) is added to 90 μl of an HTF culture medium (±glutathione) into which cumulus-oocyte complexes (COCs) have been previously introduced (insemination), and these are co-incubated in an incubator for 5 to 6 hours (37° C., 5% CO2), thereby performing fertilization. Thereafter, the ovum is washed with drops of new HTF, and the ovum is observed. Those judged to parthenogenetic (only one pronucleus is recognized in ooplasm) are excluded, and on the following day (24 hours after insemination), only 2-cell stage embryos are selected, and fertilization rate is determined according to the following formula. In vitro fertilization rate (%)=(number of 2-cell stage embryo)/(number of 2-cell stage embryo+number of unfertilized ovum)×100
The TYH culture medium used for pre-incubation of sperms was prepared according to the above-described composition excepting that polyvinyl alcohol (1.0 mg/ml, available from SIGMA) was used instead of bovine serum albumin, and methyl-β-cyclodextrin (0.75 mM, available from SIGMA) was added. Further, the concentration of glutathione in the TYH culture medium was 1 mM, preparation was carried out in the same manner as in Example 1, and glutathione was added to the TYH culture medium directly before use. The influence on fertilization rate was compared among those containing methyl-β-cyclodextrin, those containing glutathione and those containing both compounds.
Fertilization was conducted with 90 μl of an HTF culture medium (in the case of addition of glutathione, the concentration was 1 mM) containing cumulus-oocyte complexes (COCs), in the same manner as in Example 1 (IVF/glutathione in table). As the sperm, frozen sperms of C57BL/6J mice were used, and processed according to FIG. 1. Thawed sperms were pre-incubated in a TYH culture medium (±glutathione, ±methyl-β-cyclodextrin) at 37° C. for 30 minutes, and sperms showing motility were collected and used for fertilization. The experiment was conducted five times.

| Molecule | thinning and swelling of zona pellucida [1] | number of 2-cell stage embryo(%) ([2]; sperm pre-incubation MBCD + (0.75 mM), glutathione −, IVF glutathione −) | number of 2-cell stage embryo ([2]; sperm pre-incubation MBCD + (0.75 mM), glutathione −, IVF glutathione −, 323 oocytes) | effect of sperm pre-incubation on fertilization rate ([2]; sperms pre-incubated with 1 mM glutathione or 0.75 mM MBCD, 37° C., 30 minutes) |
| --- | --- | --- | --- | --- |
| O[C@@H](CS)[C@@H](O)CS [DTT] | thinning and swelling of zona pellucida by treatment with DTT were confirmed | – | – | – |
| O=C1O[C@H]([C@@H](O)CO)C(O)=C1O [ascorbic acid] | thinning or swelling of zona pellucida did not occur | – | – | – |
| methyl-β-cyclodextrin [MBCD] | – | 65 | 210 | fertilization rate was improved |
